Measurements published in patent publication US5646130A, “Low molecular weight sulfated polysaccharides and uses thereof” (priority 1995, dated 1997).

Columns and labels:
white blood cells = assay: Cyclophosphamide immunosuppression in albino mice; type: in vivo; settings: cyclophosphamide alone
Source text: These compounds provided herein can also be used for enhancing cellular and humoral immunological activities. In particular, these compositions and compounds prevent or reduce the immunosuppressive side-effects associated with the administration of alkylating agents, such as cyclophosphamide, for treatment of certain cancers.

[1] = tested on: rabbit blood clot formation; assay: Ex vivo anti-thrombotic activity in treated rabbits (clot wet weight); settings: 83 u/kg
Procedure: Blood [1 ml] was removed from the carotid artery of treated animals and quickly injected into clot formation tubes. […] The wet weight of the clot was determined. The clot was dried at 60° C. overnight, and dry weight was determined.

[2] = tested on: preformed rabbit blood clot; assay: Ex vivo thrombolysis of preformed rabbit blood clot; settings: 335 U/ml
Procedure: A rabbit arterial blood clot [1 ml] was preformed at 37° C., for 60 min. The clot was incubated in vitro with the drug (0.1 ml, 6 groups) in the clot forming tube at 37° C. for 60 min. At the end of the incubation, the clot was removed and its wet weight determined. It was then dried overnight and its dry weight was determined.

thrombus formation = assay: Comparison of (M9 G)2 and heparin, thrombosis assay, Experiment 2; type: in vivo, rabbit; settings: 83 u/kg
Procedure: Rabbits were anesthetized and surgically instrumented using an established method in which the right carotid artery was connected via a polyethylene tube to the left external […]. A 15 cm [#4] surgical wire was left in the polyethylene tubing for thrombus formation. The animals were then treated with saline or drug intravenously for 10 minutes and the arterial-venous shunt was connected to allow blood flow for 15 minutes. The wire was then retrieved and weighed to determine the thrombus weight.

[3] = tested on: fibrinolysis (euglobulin lysis); assay: Euglobulin lysis time in rabbits; type: in vivo, rabbit; settings: iv 333 U/Kg
Source text: ELT:englobulin (euglobulin) lysis time; a measurement of in vivo plasmin

[4] = tested on: fibrin degradation protein (FDP); assay: Fibrinolysis activity in rabbits (FDP, fibrinogen); type: in vivo, rabbit; settings: iv 333 U/Kg
hyperlipoproteinemia = assay: Anti-hyperlipoproteinic activity in rats; type: in vivo, rat; settings: 300 mg/Kg PO
Source text: The pharmacological activity increased with oral dose levels.

In the case of `O=P1(N(CCCl)CCCl)NCCCO1` (centres unmarked) [cyclophosphamide], the “White blood cell counts” value (white blood cells) is reported as “close to zero”.
For heparin, the “Clot wet weight, 15 min after” value [1] was 2.0 ± 4.5 mg, the “Clot wet weight, 60 min after” value [1] was 51 ± 23 mg and the “% Dissolution” value [2] was 4.7 ± 8.5%. The Clot dry weight [2] was 14.1 ± 3.2, the Clot wet weight [2] was 56 ± 9 and the “Wet weight inhibition, 15 min” value (thrombus formation) was 97. For the same compound, the “Wet weight inhibition, 60 min” value (thrombus formation) was 20, the “Wet weight inhibition, 120 min” value (thrombus formation) was 0 and the “ELT time, 15 min post” value [3] was 124 min. For the same compound, the “ELT time, 60 min post” value [3] was 197 min, the “FDP, 15 min post” value [4] was 18 ± 9 mg/L and the “FDP, 60 min post” value [4] was 6 ± 6. mg/L.
For `CCOC(=O)C(C)(C)Oc1ccc(Cl)cc1` [clofibrate], the MDA (hyperlipoproteinemia) was 1.2 mmol/L, the “PTC (percent inhibition of total cholesterol)” value (hyperlipoproteinemia) was 53% and the TC (hyperlipoproteinemia) was 4.0 mmol/L. The TG (hyperlipoproteinemia) was 0.4 mmol/L.
